Experimental data published in patent US8530648B2, “Diaza-spiro[5.5]undecanes” (Novartis AG, priority 2009, dated 2013).

Assays:
hOx1R = hOx1R (Homo sapiens (Human), UniProt O43613); assay: Calcium accumulation in cells (FLIPR), hOx1R; type: cell-based; conditions: for Ki: inhibition of orexin A induced calcium accumulation, Cheng and Prusoff correction; for inhibition at 10 µM: measured at a concentration of 10 μM of compound
Description: (§1) Calcium Accumulation in Cells (FLIPR):
(§2) Cells expressing human orexin 1 or human orexin 2 receptors, were seeded at 8,000 cells/well in 384 well black-walled clear bottom, poly-D-lysine coated plates. After 24 h, the medium was removed and cells were washed once with phosphate buffered saline and serum-deprived overnight in assay buffer (130 mM NaCl, 5.4 mM KCl, 1.8 mM CaCl2, 0.8 mM MgSO4, 0.9 mM NaH2PO4, 25 mM glucose, 20 mM HEPES, pH 7.4) containing bovine serum albumin (1% w/v).
(§3) On the day of the experiment, the cells seeded in black plates were treated with assay buffer containing the Ca^2+ sensitive fluorescent dye Fluo-4-AM (2 μM), and probenecid (0.1 mM). After 1 h plates were washed twice with, and resuspended in, assay buffer containing probenecid (0.1 mM) using a multi plate washer. […] Fluorescence measurements were then continued every 1 S for 120 S followed by every 4 S for 240 S.
(§4) The measurements were typically made in two sequences:
(§5) Compounds of formula I were tested usually in a concentration range from 10^−9 M to 10^−5 M.
(§6) In the second round, performed one hour later (to allow for equilibration), Orexin A was tested either in the absence (calibration curves, Orexin A agonist controls) or in the presence of compounds of formula I to determine antagonism.

hOx2R = hOx2R (Homo sapiens (Human), UniProt O43614); assay: Calcium accumulation in cells (FLIPR), hOx2R; type: cell-based; conditions: for inhibition at 10 µM: measured at a concentration of 10 μM of compound; for Ki: inhibition of orexin A induced calcium accumulation, Cheng and Prusoff correction
Chain of hOx2R (O43614 whole entry): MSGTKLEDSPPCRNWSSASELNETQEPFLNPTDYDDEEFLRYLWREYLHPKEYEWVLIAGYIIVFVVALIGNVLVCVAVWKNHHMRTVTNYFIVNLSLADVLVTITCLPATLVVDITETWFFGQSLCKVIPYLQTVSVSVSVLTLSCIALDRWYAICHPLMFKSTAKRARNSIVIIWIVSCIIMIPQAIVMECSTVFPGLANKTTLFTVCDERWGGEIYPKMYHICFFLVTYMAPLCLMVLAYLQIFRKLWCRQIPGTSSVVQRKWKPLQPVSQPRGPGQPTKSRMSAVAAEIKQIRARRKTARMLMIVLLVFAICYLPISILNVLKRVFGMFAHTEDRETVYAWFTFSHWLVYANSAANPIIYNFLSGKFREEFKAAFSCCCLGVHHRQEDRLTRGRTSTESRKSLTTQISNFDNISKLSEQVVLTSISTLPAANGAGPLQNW
Description: as §1, §2, §3, §4, §5, §6

Chain of hOx1R (O43613 whole entry): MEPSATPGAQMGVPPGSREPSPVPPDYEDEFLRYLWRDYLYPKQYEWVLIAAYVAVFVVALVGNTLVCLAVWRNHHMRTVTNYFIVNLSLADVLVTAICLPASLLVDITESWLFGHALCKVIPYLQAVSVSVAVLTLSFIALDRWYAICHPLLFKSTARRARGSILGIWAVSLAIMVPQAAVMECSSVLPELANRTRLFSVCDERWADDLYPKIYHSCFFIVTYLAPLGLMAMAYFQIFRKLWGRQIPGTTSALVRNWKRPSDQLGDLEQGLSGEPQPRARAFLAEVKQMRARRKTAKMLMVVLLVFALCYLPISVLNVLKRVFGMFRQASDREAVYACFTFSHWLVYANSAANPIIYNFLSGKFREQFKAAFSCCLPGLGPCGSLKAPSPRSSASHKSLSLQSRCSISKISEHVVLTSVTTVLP

Structure (SMILES)	Ki (hOx1R) [nM]	inhibition at 10 µM (hOx2R) [%]	Ki (hOx2R) [nM]	inhibition at 10 µM (hOx1R) [%]
Cc1oc(-c2ccoc2)nc1CN1CCCC2(CCN(c3cnc4ccccc4n3)CC2)C1=O [Example 116, 2-((2-(furan-3-yl)-5-methyloxazol-4-yl)methyl)-9-(quinoxalin-2-yl)-2,9-diazaspiro[5.5]undecan-1-one]	3790	53	–	–
Cc1ccc2[nH]c(N3CCC4(CCCN(Cc5c[nH]c6ccccc56)C4=O)CC3)nc2c1 [Example 163, 2-((1H-indol-3-yl)methyl)-9-(5-methyl-1H-benzo[d]imidazol-2-yl)-2,9-diazaspiro[5.5]undecan-1-one]	–	–	483	23
Cc1cc(CN2CCCC3(CCN(c4cnc5ccccc5n4)CC3)C2=O)nn1C [Example 84, 2-((1,5-dimethyl-1H-pyrazol-3-yl)methyl)-9-(quinoxalin-2-yl)-2,9-diazaspiro[5.5]undecan-1-one]	–	46	–	40
COc1ccc2[nH]c(N3CCC4(CCCN(Cc5c[nH]c6ccccc56)C4=O)CC3)nc2c1 [Example 159, 2-((1H-indol-3-yl)methyl)-9-(5-methoxy-1H-benzo[d]imidazol-2-yl)-2,9-diazaspiro[5.5]undecan-1-one]	–	–	745	24
O=C1N(Cc2ccccn2)CCCC12CCN(c1cnc3ccccc3n1)CC2 [Example 62, 2-(pyridin-2-ylmethyl)-9-(quinoxalin-2-yl)-2,9-diazaspiro[5.5]undecan-1-one]	–	–	833	29
O=C1N(Cc2c[nH]c3ccccc23)CCCC12CCN(c1ncnc3[nH]ccc13)CC2 [Example 155, 2-((1H-indol-3-yl)methyl)-9-(7H-pyrrolo[2,3-d]pyrimidin-4-yl)-2,9-diazaspiro[5.5]undecan-1-one]	1530	–	239	–
O=C1N(Cc2ccncc2)CCCC12CCN(c1cnc3ccccc3n1)CC2 [Example 67, 2-(pyridin-4-ylmethyl)-9-(quinoxalin-2-yl)-2,9-diazaspiro[5.5]undecan-1-one]	–	27	–	11

Further lines, results first:

Ki (hOx1R) [nM]	inhibition at 10 µM (hOx2R) [%]	Ki (hOx2R) [nM]	inhibition at 10 µM (hOx1R) [%]	Structure (SMILES)
932	–	151	–	O=C1N(Cc2cccc3cnccc23)CCCC12CCN(c1cnc3ccccc3n1)CC2 [Example 55, 2-(isoquinolin-5-ylmethyl)-9-(quinoxalin-2-yl)-2,9-diazaspiro[5.5]undecan-1-one]
–	32	–	30	Cn1nccc1-c1ccccc1CN1CCCC2(CCN(c3cnc4ccccc4n3)CC2)C1=O [Example 148, 2-(2-(1-methyl-1H-pyrazol-5-yl)benzyl)-9-(quinoxalin-2-yl)-2,9-diazaspiro[5.5]undecan-1-one]
3250	–	596	–	CN1CCOc2c(CN3CCCC4(CCN(c5cnc6ccccc6n5)CC4)C3=O)cccc21 [Example 144, 2-((4-methyl-3,4-dihydro-2H-benzo[b][1,4]oxazin-8-yl)methyl)-9-(quinoxalin-2-yl)-2,9-diazaspiro[5.5]undecan-1-one]
1710	–	302	–	O=C1N(Cn2nnc3ccccc32)CCCC12CCN(c1cnc3ccccc3n1)CC2 [Example 66, 2-((1H-benzo[d][1,2,3]triazol-1-yl)methyl)-9-(quinoxalin-2-yl)-2,9-diazaspiro[5.5]undecan-1-one]
1840	–	197	–	O=C1N(Cc2cncn2Cc2ccccc2)CCCC12CCN(c1cnc3ccccc3n1)CC2 [Example 118, 2-((1-benzyl-1H-imidazol-5-yl)methyl)-9-(quinoxalin-2-yl)-2,9-diazaspiro[5.5]undecan-1-one]
614	–	168	–	Cn1ccc2c(CN3CCCC4(CCN(c5cnc6ccccc6n5)CC4)C3=O)cccc21 [Example 26, 2-((1-methyl-1H-indol-4-yl)methyl)-9-(quinoxalin-2-yl)-2,9-diazaspiro[5.5]undecan-1-one]
–	–	636	–	CN1CCc2c(CN3CCCC4(CCN(c5cnc6ccccc6n5)CC4)C3=O)cccc21 [Example 145, 2-((1-methylindolin-4-yl)methyl)-9-(quinoxalin-2-yl)-2,9-diazaspiro[5.5]undecan-1-one]
